Data taken from publication PMC11275175, “Cannabielsoin (CBE), a CBD Oxidation Product, Is a Biased CB1 Agonist” (Biomedicines, 2024).

Tests used:
Format in all cases: cell-based
CB1 receptor [1] = target: T1, CB1 receptor (Mus musculus, UniProt P47746); assay: PathHunter β-arrestin CHO-K1 agonist assay (EC80)
T1 construct: gene Cnr1

CB1 receptor [2] = target: T1, CB1 receptor; assay: PathHunter β-arrestin CHO-K1 antagonist assay vs CP55940
[3] = target: T2, cannabinoid receptor type 1 (CB1) (Homo sapiens, UniProt P21554); assay: cAMP Hunter CHO-K1 CNR1 Gi agonist assay (inhibition of forskolin-stimulated cAMP)
T2 construct: gene CNR1

[4] = target: T2, cannabinoid receptor type 1 (CB1); assay: cAMP Hunter CHO-K1 CNR1 Gi antagonist assay vs […] CP55940

T2 sequence (P21554 whole entry): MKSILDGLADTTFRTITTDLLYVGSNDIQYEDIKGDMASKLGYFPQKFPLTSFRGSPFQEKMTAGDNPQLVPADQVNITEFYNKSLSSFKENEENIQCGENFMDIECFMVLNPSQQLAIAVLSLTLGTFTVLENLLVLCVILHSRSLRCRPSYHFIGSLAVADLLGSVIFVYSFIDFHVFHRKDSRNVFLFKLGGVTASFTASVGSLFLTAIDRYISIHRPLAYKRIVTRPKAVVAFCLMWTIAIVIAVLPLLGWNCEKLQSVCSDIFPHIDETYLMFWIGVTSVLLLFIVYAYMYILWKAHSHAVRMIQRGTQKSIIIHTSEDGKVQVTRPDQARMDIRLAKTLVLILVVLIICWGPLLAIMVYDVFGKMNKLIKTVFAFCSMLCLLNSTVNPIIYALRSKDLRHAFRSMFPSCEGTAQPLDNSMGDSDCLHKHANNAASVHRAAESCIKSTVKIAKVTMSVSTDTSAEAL
T1 sequence (P47746 whole entry): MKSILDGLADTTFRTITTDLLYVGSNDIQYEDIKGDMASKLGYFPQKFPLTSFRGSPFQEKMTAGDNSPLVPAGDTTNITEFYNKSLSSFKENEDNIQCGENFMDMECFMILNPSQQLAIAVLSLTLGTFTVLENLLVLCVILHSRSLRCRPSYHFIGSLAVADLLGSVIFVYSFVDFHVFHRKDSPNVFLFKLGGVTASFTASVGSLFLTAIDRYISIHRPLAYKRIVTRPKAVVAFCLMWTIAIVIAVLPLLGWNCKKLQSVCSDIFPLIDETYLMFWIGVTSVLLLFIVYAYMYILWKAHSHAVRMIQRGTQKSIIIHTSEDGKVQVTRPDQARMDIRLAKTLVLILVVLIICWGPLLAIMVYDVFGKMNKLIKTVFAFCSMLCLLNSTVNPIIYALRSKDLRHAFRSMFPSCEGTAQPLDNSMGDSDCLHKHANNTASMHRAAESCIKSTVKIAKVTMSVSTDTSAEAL

Compound: CCCCCCC(C)(C)c1ccc([C@@H]2C[C@H](O)CC[C@H]2CCCO)c(O)c1 (racemic) [CP55940]
- EC80 (CB1 receptor [1]): 0.0115 µM

Compound: Cc1c(C(=O)NN2CCOCC2)nn(-c2ccc(Cl)cc2Cl)c1-c1ccc(I)cc1 [AM281]
- IC50 (CB1 receptor [2]): 40 nM

Compound: C=C(C)[C@@H]1CC[C@](C)(O)[C@H]2Oc3cc(CCCCC)cc(O)c3[C@@H]12 [S-CBE]
- EC50 [3]: 3.72 µM

Compound: Cc1c(C(=O)NN2CCCCC2)nn(-c2ccc(Cl)cc2Cl)c1-c1ccc(I)cc1 [AM251]
- cAMP Hunter CHO-K1 CNR1 Gi antagonist assay vs 1.2 nM CP55940 [4]: the antagonist/inverse agonist of CB1, AM251, completely diminished the agonist signal of CP55940
